Measured values: patent publication US20240156971A1, “METHODS AND SORTILIN BINDING CONJUGATE COMPOUNDS FOR TARGETING CANCER STEM CELLS” (TRANSFERT PLUS, SOCIÉTÉ EN COMMANDITE, priority 2021, published 2024)
Square brackets hold non-standard residues; d marks the D form. Ends that are not written are not given here. Alexa Fluor 488 = Alexa Fluor 488 C5-maleimide dye; Nle = CCCC[C@H](N)C(=O)O

How the values were obtained:
[1] = tested on: ovarian hOCSC xenografts; experiment: hOCSC xenografts treated with single agents or combined with carboplatin; type: in vivo, mice; conditions: docetaxel 10 mg/kg; TH1902 23 mg/kg; paclitaxel 10 mg/kg; carboplatin 40 mg/kg; day 18
Protocol: Mice bearing ovarian hOCSC xenografts were treated with vehicle, docetaxel, paclitaxel, TH1902 or carboplatin, and other groups of mice were administered carboplatin in combination with either docetaxel, paclitaxel or TH1902. To minimize the risk of side effects resulting from combining treatments, the dosages used for each drug were reduced to the following: docetaxel 10 mg/kg; TH1902 23 mg/kg (equivalent to the docetaxel dosage); paclitaxel 10 mg/kg; carboplatin 40 mg/kg (unchanged).

[2] = tested on: hBCSCs; experiment: Internalization of TH19P01-Alexa Fluor 488 by hBCSCs (flow cytometry); type: cell-based, human; conditions: 200 nM, 2 hours, vs vehicle-treated cells
Protocol: Assessment of Intracellular Fluorescence with TH19P01-Alexa Fluor™ 488. hBCSC were grown in 12-well plates in complete media for 24 hours. […] In another experiment, siScrambled- or siSORT1-transfected cells were washed with HBSS and incubated in HBSS in the presence or absence of 200 nM Alexa Fluor™ 488-labeled TH19P01. For both types of experiments, after 2 hours of incubation at 37° C., cells were washed with HBSS, trypsinized, washed again and fluorescence assessed in the FL1 channel using a C6 Accuri™ flow cytometer (BD Biosciences, San Jose, CA).

[3] = molecular target: T1, Sortilin (Homo sapiens, UniProt Q99523); experiment: Uptake of TH19P01-Alexa Fluor 488 by hBCSCs in the presence of competing Sortilin ligands; type: cell-based; conditions: 200 nM fluorescent peptide, 2 h, 10 μM neurotensin, 50 μM TH19P01 or 1 nM progranulin
T1 construct: host or cells: human triple-negative breast cancer stem cells (hBCSCs)
T1 sequence (Q99523 78-831): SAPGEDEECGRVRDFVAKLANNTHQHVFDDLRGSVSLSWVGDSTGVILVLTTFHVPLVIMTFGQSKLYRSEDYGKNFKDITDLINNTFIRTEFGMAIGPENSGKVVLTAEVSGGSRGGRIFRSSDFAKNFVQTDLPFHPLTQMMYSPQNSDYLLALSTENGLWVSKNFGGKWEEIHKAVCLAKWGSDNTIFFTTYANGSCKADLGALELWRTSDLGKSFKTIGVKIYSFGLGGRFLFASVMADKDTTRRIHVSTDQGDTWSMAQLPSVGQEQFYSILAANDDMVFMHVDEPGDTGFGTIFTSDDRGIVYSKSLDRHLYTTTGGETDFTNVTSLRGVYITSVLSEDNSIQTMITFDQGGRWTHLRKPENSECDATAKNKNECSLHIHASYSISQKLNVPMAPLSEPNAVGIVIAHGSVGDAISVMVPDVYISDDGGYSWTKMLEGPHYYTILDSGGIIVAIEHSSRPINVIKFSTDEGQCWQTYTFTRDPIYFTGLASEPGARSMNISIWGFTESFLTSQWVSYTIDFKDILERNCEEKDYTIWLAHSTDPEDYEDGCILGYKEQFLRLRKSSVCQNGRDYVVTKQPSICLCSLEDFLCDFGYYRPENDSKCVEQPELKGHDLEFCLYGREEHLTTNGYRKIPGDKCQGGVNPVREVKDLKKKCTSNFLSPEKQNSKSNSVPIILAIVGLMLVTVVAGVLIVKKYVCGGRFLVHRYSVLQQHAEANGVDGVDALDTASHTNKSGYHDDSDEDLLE

| Molecule | inhibition of tumor growth, single agent [1] | decrease of intracellular fluorescence (internalization of TH19P01-Alexa Fluor 488) by competing agent [3] | further results |
| --- | --- | --- | --- |
| N.N.O=C([O-])C1(C(=O)[O-])CCC1.[Pt+2] [carboplatin] | practically equivalent to that seen with docetaxel | – | – |
| TH19P01-Alexa Fluor™ 488 (GVRAKAGVRN[Nle]FKSESYC(Alexa Fluor 488)) | – | – | fluorescent signal in cells versus background fluorescence [2]: an order of magnitude greater than the background fluorescence |
| CC(=O)O[C@H]1C(=O)[C@@]2(C)[C@H]([C@H](OC(=O)c3ccccc3)[C@]3(O)C[C@H](OC(=O)[C@H](O)[C@@H](NC(=O)c4ccccc4)c4ccccc4)C(C)=C1C3(C)C)[C@]1(OC(C)=O)CO[C@@H]1C[C@@H]2O [Paclitaxel, paclitaxel] | practically equivalent to that seen with docetaxel | – | – |
| GVRAKAGVRN(Nle)FKSESY (GVRAKAGVRN[Nle]FKSESY) [TH19P01] | – | decrease significantly (p<0.01) by about half | – |
| progranulin [reference compound] | – | decrease significantly (p<0.01) by about half | – |
